Reference: patent EP4755890A1, “OXO-TRICYCLIC DERIVATIVE AND PHARMACEUTICAL USE THEREOF” (Haisco Pharmaceutical Group Co., Ltd., priority 2023, dated 2025)

Columns and labels:
[1] = biological target: T1, WRN protein (AA N517-P1238, ICE) (Homo sapiens, UniProt Q14191); assay: Assay for ATPase activity of WRN helicase (ADP-Glo); assay type: biochemical; conditions: inhibition of ATPase activity of WRN helicase; 0.3 nM WRN, 0.2 nM DNA substrate, 10 µM ATP
T1 construct: WRN protein (AA N517-P1238, ICE); purchased ICE
T1 sequence (Q14191 517-1238): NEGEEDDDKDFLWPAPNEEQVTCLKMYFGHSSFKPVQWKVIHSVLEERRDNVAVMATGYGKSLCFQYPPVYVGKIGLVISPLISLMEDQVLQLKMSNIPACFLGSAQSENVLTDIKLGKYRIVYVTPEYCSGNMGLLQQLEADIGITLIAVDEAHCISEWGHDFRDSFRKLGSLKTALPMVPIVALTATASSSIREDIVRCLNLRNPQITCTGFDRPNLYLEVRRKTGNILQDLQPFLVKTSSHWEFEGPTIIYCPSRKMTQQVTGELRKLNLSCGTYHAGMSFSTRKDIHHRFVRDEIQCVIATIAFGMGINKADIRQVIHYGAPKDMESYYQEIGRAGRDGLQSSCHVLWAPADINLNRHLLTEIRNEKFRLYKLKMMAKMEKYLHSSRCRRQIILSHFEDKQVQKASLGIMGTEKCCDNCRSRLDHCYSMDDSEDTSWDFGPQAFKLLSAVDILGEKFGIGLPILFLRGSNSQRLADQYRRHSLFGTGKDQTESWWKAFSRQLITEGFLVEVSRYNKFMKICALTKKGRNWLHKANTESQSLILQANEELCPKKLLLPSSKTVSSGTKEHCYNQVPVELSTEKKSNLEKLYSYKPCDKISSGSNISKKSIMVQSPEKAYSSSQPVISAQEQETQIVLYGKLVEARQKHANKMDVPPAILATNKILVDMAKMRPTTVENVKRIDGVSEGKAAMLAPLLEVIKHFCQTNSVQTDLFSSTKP
Description: The assay buffer working solution was as follows: 30 mM Tris pH 7.5 + 0.02% BSA + 2 mM MgCl2 + 50 mM NaCl + 0.1% Pluronic® F127 + 1 mM DTT. WRN protein (AA N517-P1238, ICE) was obtained through protein expression and purification in vitro. A single-stranded DNA substrate ([…]) was synthesized in vitro. 1 µL each of compounds at different concentrations, the WRN protein, and the DNA substrate, together with 2 µL of ATP, were added to a 384-well white plate. The working concentrations of the WRN protein, the DNA substrate, and the ATP were 0.3 nM, 0.2 nM, and 10 µM, respectively. The plate was incubated at room temperature for 20 minutes. After the incubation was completed, the detection was performed in accordance with the instructions of the ADP-Glo Assay Kit (Promega), and the chemiluminescence value was read.
The inhibition rate was calculated according to Formula 1, where RLUsample is the readout of the compound well, RLUmax is the readout of the DMSO control well, and RLUmin is the readout of the control well without the WRN protein. Curve fitting was performed via a four-parameter logistic model (log(inhibitor) vs. response -- Variable slope) using GraphPad Prism software, and the IC50 value was calculated. Inhibition% = (1−(RLUsample−RLUmin)/(RLUmax−RLUmin)) × 100% [formula] Table 1. Results of inhibitory activity of test compounds against ATPase activity of WRN helicase

[2] = tested on: HCT-116 cells; assay: HCT-116 cell proliferation inhibition assay (CellTiter-Glo); assay type: cell-based; conditions: Homo sapiens, 96 h, 4 days, read-out: Inhibitory activity against HCT-116 cell proliferation IC50
Description: The culture conditions for HCT-116 cells were as follows: RPMI-1640 + 10% FBS + 1% penicillin-streptomycin, and the cells were cultured in an incubator with 5% CO2 at 37°C. On the first day, the HCT-116 cells in the exponential growth phase were collected and plated in 96-well cell culture plates at a density of 800 cells/well (180 µL/well). The plates were cultured overnight in an incubator with 5% CO2 at 37°C. T0 wells were plated simultaneously during the plating process. The next day, 20 µL of compounds at different concentrations were added to each well (nine compound concentration gradients, one DMSO well, and one blank well; each compound concentration was plated in triplicate), and the final concentration of DMSO in each well was 0.1%. The plates were cultured in an incubator with 5% CO2 at 37°C for 4 days. On the same day of compound addition, the T0 plate was detected using the CellTiter-Glo Kit, and the detected value was recorded as RLU0. After the culture was completed, 100 µL of detection solution (Cell Viability Assay, Promega) was added to each well. […] The chemiluminescence reading was read using a BMG microplate reader (PHERAstar FSX). […] In the formula, RLUcompound is the readout of the drug-treated group, RLUcontrol is the average value of the compound vehicle control group, and RLUBlank is the average value of the blank control group. […]

[3] = biological target: T2, hERG potassium channel (Homo sapiens, UniProt Q12809); assay: hERG potassium channel activity assay (manual whole-cell patch clamp); assay type: cell-based
T2 construct: expressed in transfected cells
T2 sequence (Q12809 whole entry): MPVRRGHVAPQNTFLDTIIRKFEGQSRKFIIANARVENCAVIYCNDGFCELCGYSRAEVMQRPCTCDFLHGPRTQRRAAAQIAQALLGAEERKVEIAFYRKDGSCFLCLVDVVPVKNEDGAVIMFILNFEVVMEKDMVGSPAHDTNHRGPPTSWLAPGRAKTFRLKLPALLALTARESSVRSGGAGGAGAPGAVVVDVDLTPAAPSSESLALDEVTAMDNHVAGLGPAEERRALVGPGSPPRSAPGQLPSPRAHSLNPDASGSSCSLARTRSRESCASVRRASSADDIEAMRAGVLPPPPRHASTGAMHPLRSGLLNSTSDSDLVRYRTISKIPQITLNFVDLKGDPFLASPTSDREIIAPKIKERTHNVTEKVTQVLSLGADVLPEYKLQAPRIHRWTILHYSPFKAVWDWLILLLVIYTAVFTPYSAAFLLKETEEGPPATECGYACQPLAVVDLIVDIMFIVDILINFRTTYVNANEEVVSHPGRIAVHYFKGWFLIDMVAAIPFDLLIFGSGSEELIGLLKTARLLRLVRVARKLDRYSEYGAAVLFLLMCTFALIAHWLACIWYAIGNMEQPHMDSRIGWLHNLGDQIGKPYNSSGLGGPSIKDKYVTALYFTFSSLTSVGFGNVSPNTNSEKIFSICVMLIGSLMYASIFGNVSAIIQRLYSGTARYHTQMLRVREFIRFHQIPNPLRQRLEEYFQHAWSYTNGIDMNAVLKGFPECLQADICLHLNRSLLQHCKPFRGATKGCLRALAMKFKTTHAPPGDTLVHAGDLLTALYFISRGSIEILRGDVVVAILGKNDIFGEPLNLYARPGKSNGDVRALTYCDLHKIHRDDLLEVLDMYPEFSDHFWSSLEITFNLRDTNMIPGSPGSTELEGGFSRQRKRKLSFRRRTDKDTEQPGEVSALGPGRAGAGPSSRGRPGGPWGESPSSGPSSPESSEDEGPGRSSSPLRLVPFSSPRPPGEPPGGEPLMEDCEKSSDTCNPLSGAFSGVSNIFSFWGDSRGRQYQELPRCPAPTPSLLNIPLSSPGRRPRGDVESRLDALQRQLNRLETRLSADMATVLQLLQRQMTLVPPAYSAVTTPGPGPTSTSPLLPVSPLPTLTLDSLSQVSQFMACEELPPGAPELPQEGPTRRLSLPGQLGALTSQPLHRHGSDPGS
Text: Experimental platform: Manual electrophysiological patch-clamp system
Cell line: Chinese hamster ovary (CHO) cell line stably expressing hERG potassium channel
Experimental method: In Chinese Hamster Ovary (CHO) cells stably expressing hERG potassium channel, whole-cell patch-clamp technique was used to record hERG potassium channel current at room temperature. The glass microelectrodes were pulled from glass electrode blanks (BF150-86-10, Sutter) by a glass microelectrode puller. The tip resistance of the microelectrodes after being filled with intrapipette solution was about 2-5 MΩ. The glass microelectrodes were connected to the patch-clamp amplifier by inserting them into an amplifier probe. The clamping voltage and data recording were controlled and recorded by the pClamp 10 software through a computer, with a sampling frequency of 10 kHz and a filtering frequency of 2 kHz. […]
Compound IC50 was calculated using GraphPad Prism 5 software by fitting according to the following equation: Y = Bottom + (Top−Bottom)/(1+10^(∧)((LogIC50−X)*HillSlope)) [formula] where X is the Log value of the test compound concentration, Y is the inhibition percentage at the corresponding concentration, and Bottom and Top are the minimum and maximum inhibition percentage, respectively.

[4] = tested on: SW48 Xenograft Tumor; assay: In vivo efficacy assay of SW48 xenograft tumor; parameters: species or system BALB/c nude mice; conditions: after 14 days of administration
Description: The culture conditions for SW48 cells were as follows: Leibovitz L15 + 10% FBS + 1% penicillin-streptomycin, and the cells were cultured in an incubator without CO2 at 37°C. When the cell confluency reached 80%-90% and the cell number met the requirement, the cells were harvested and counted. 0.1 mL of SW48 cell suspension (5 × 10^6 cells) was subcutaneously inoculated into the right posterior back of female BALB/c nude mice. When the average tumor volume reached 100-150 mm^3, the mice were grouped according to their tumor volumes, with 10 animals per group. The test compounds at different dosages were administered to the animals in each group via intragastric administration once daily. The day of grouping was recorded as D0. During the experiment, the body weights and tumor diameters of the animals were measured three times a week. The tumor volume was calculated according to the formula V = 0.5 × a × b^2, where a and b represent the long diameter and short diameter of the tumor, respectively. The tumor inhibitory efficacy of the test compounds was evaluated by tumor growth inhibition rate (TGI%). [formula]

| Structure (SMILES) | IC50 [1] [µM] | IC50 [2] [µM] | IC50 [3] [µM] | growth of SW48 tumors ([4]; intragastric once daily) | tumor shrinkage ([4]; dosage group of 15 mg/kg) | tumor shrinkage ([4]; dosage group of 50 mg/kg) |
| --- | --- | --- | --- | --- | --- | --- |
| Cc1ncnc(C(=O)N2CCN(c3c4n(c5nc(C6=CCOCC6)nn5c3=O)[C@@H](C(=O)Nc3ccc(C(F)(F)F)cc3Cl)CCC4)CC2)c1O [Compound 1-B] | < 0.02 | < 0.1 | > 40 | significantly inhibit | tumor shrinkage can be observed | tumor shrinkage can be observed |
| Cc1ncnc(C(=O)N2CCN(c3c4n(c5nc(C6=CCOCC6)nn5c3=O)C(C(=O)Nc3ccc(C(F)(F)F)cc3Cl)CCC4)C[C@H]2C)c1O (single isomer, unassigned) [Compound 8-B] | – | – | > 40 | – | – | – |
